Values of other authors in patent US20070287755A1, “Orally administered compound for preventing neonatal hemorrhages, in a tardy form, caused by a K-vitamin dificiency” (priority 2006, published 2007).

Columns and labels:
[1] = only if a suitable amount of biliar salts is present; lymphatic ways, proximal small intestine
[2] = tested on: tardy hemorrhagic disease; details: repeated oral doses of 25 micrograms/day, breast-fed newborn babies
[3] = human person, after 72 hours

absorption through the gastrointestinal tract [1] | presence in blood [3] | Compound | prophylaxis of tardy hemorrhagic disease [2]
nearly fully absorbed | – | CC1=C(C/C=C(\C)CCC[C@H](C)CCC[C@H](C)CCCC(C)C)C(=O)c2ccccc2C1=O [Phytonadion] | –
– | practically absent in blood | K-vitamin | efficient for a full prophylaxis
